ChEMBL document CHEMBL1201862, “PubChem BioAssay data set” (2004)
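Tested at 5 concentrations; 48 h exposure; 96-well plates; endpoints linearly interpolated, else capped at highest concentration. At the GI50, growth is halved.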 Active and inactive are the calls of the source. Rule as the data show it: active = GI50 up to about 1.1 µM and inactive = higher.

Experiments:
Test in all cases: NCI tumour cell line growth inhibition, 48 h
OVCAR-3 = tested on: OVCAR-3
M14 = tested on: M14
DU-145 = tested on: DU-145
MDA-N = tested on: MDA-N
COLO 205 = tested on: COLO 205
IGROV-1 = tested on: IGROV-1
BT-549 = tested on: BT-549
MDA-MB-231 = tested on: MDA-MB-231
UACC-62 = tested on: UACC-62
ACHN = tested on: ACHN
NCI-H23 = tested on: NCI-H23
OVCAR-5 = tested on: OVCAR-5
NCI/ADR-RES = tested on: NCI/ADR-RES
UO-31 = tested on: UO-31
RPMI-8226 = tested on: RPMI-8226
TK-10 = tested on: TK-10
SK-MEL-2 = tested on: SK-MEL-2
SNB-19 = tested on: SNB-19
KM12 = tested on: KM12
EKVX = tested on: EKVX

| SMILES | GI50 (OVCAR-3) | GI50 (M14) | GI50 (DU-145) | GI50 (MDA-N) | GI50 (COLO 205) | GI50 (IGROV-1) | GI50 (BT-549) | GI50 (MDA-MB-231) | GI50 (UACC-62) | GI50 (ACHN) | GI50 (NCI-H23) | GI50 (OVCAR-5) | GI50 (NCI/ADR-RES) | GI50 (UO-31) | GI50 (RPMI-8226) | GI50 (TK-10) | GI50 (SK-MEL-2) | GI50 (SNB-19) | GI50 (KM12) | GI50 (EKVX) |
| --- | --- | --- | --- | --- | --- | --- | --- | --- | --- | --- | --- | --- | --- | --- | --- | --- | --- | --- | --- | --- |
| Clc1nc(Cl)c(CBr)c(Cl)n1 | 5.45 µM (inactive) | 2.91 µM (inactive) | 16.7 µM (inactive) | 3.25 µM (inactive) | 7.01 µM (inactive) | 4.41 µM (inactive) | 2.17 µM (inactive) | 1.9 µM (inactive) | 5.08 µM (inactive) | 4.84 µM (inactive) | 14.6 µM (inactive) | 3.22 µM (inactive) | 4.29 µM (inactive) | 3.33 µM (inactive) | 0.867 µM (active) | 4.7 µM (inactive) | 8.65 µM (inactive) | 16 µM (inactive) | 2.71 µM (inactive) | 22.1 µM (inactive) |
| NNC(=O)Cn1c2ccc(Br)cc2c2nc3ccccc3nc21 | 23.2 µM (inactive) | > 100 µM (inactive) | > 100 µM (inactive) | > 100 µM (inactive) | > 100 µM (inactive) | 31 µM (inactive) | > 100 µM (inactive) | > 100 µM (inactive) | 56.5 µM (inactive) | 36.6 µM (inactive) | 20.4 µM (inactive) | 53.7 µM (inactive) | > 100 µM (inactive) | 19.9 µM (inactive) | > 100 µM (inactive) | 56 µM (inactive) | 19.1 µM (inactive) | 80 µM (inactive) | > 100 µM (inactive) | 9.59 µM (inactive) |
| CC(C)(C)c1ccc(O)c(C[N+](C)(C)C)c1 | 68.9 µM (inactive) | > 100 µM (inactive) | > 100 µM (inactive) | > 100 µM (inactive) | > 100 µM (inactive) | > 100 µM (inactive) | > 100 µM (inactive) | > 100 µM (inactive) | > 100 µM (inactive) | > 100 µM (inactive) | > 100 µM (inactive) | > 100 µM (inactive) | > 100 µM (inactive) | > 100 µM (inactive) | 63.2 µM (inactive) | > 100 µM (inactive) | > 100 µM (inactive) | > 100 µM (inactive) | > 100 µM (inactive) | 93.1 µM (inactive) |
